# Assay results taken from patent US20250230172A1 (Vanqua Bio, Inc., priority 2021, published 2025).
# Target: T1, GCase (Homo sapiens, UniProt P04062)
# T1 construct: endogenous in cells; host or cells: HeLa cells
# T1 sequence (P04062 40-536): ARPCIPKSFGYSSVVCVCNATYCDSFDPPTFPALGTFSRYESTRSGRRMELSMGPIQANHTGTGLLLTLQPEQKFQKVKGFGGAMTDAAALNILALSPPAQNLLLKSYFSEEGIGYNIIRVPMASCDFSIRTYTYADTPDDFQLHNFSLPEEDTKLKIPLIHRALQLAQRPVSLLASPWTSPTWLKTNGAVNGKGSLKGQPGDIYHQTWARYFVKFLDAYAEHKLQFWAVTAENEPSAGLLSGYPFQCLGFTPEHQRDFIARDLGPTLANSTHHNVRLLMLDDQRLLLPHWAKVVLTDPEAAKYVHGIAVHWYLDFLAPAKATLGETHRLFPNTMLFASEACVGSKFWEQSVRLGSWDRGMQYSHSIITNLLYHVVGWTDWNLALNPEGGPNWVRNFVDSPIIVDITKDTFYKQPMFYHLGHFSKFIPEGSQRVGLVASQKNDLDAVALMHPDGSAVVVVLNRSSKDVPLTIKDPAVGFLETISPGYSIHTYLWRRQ
# Test: live cell PFB assay in HELA cells for activation of GCase
# Format: cell-based
# Method: Exemplary compounds were evaluated for activation of GCase in a live cell PFB assay in HELA cells (essentially as described in Ysselstein et al., “LRRK2 kinase activity regulates lysosomal glucocerebrosidase in neurons derived from Parkinson's disease patients” Nature Communications (2019) 10:5570). […] EC50 ranges: A: <10 μM; B: >10-50 μM; C: >50-100 μM; D: >100 μM.
row,EC50 [µM],Structure (SMILES)
1,> 100,"FC(F)Cn1ncc2ncc(N3C[C@@H]4CN(c5cc(C(F)(F)F)ccn5)C[C@H]4C3)nc21 (racemic) [Compound 44, rac-2-[(3aR,6aR)-5-[1-(2,2-difluoroethyl)-1H-pyrazolo[3,4-b]pyrazin-6-yl]-octahydropyrrolo[3,4-c]pyrrol-2-yl]-4-(trifluoromethyl)pyridine]"
2,50 to 100,"FC(F)Cn1ncc2ncc(N3C[C@@H]4CN(c5cccc(C(F)(F)F)n5)C[C@H]4C3)nc21 (racemic) [Compound 46, rac-2-[(3aR,6aR)-5-[1-(2,2-difluoroethyl)-1H-pyrazolo[3,4-b]pyrazin-6-yl]-octahydropyrrolo[3,4-c]pyrrol-2-yl]-6-(trifluoromethyl)pyridine]"
3,10 to 50,"FC(F)Cn1ncc2ncc(N3C[C@@H]4CN(c5ccc(C(F)(F)F)nc5)C[C@H]4C3)nc21 (racemic) [Compound 48, rac-5-[(3aR,6aR)-5-[1-(2,2-difluoroethyl)-1H-pyrazolo[3,4-b]pyrazin-6-yl]-octahydropyrrolo[3,4-c]pyrrol-2-yl]-2-(trifluoromethyl)pyridine]"
4,< 10,"FC(F)Cn1ncc2ncc(N3C[C@@H]4CN(c5cccnc5C(F)(F)F)C[C@H]4C3)nc21 (racemic) [Compound 50, rac-3-[(3aR,6aR)-5-[1-(2,2-difluoroethyl)-1H-pyrazolo[3,4-b]pyrazin-6-yl]-octahydropyrrolo[3,4-c]pyrrol-2-yl]-2-(trifluoromethyl)pyridine]"
5,10 to 50,"O=C1[C@@H]2CN(c3cc(C(F)(F)F)ccn3)C[C@@H]2CN1c1cnc2cnn(CC(F)F)c2n1 (racemic) [Compound 55, rac-(3aR,6aS)-2-[1-(2,2-difluoroethyl)-1H-pyrazolo[3,4-b]pyrazin-6-yl]-5-[4-(trifluoromethyl)pyridin-2-yl]-octahydropyrrolo[3,4-c]pyrrol-1-one]"
6,< 10,"FC(F)Cn1ncc2ncc(N3CC[C@H]4[C@@H]3CCN4c3cc(C(F)(F)F)ccn3)nc21 (racemic) [Compound 56, rac-2-[(3aR,6aR)-4-[1-(2,2-difluoroethyl)-1H-pyrazolo[3,4-b]pyrazin-6-yl]-octahydropyrrolo[3,2-b]pyrrol-1-yl]-4-(trifluoromethyl)pyridine]"
7,10 to 50,"FC(F)Cn1ncc2ncc(N3CC[C@H]4[C@@H]3CCN4c3cccc(C(F)(F)F)n3)nc21 (racemic) [Compound 57, rac-2-[(3aR,6aR)-4-[1-(2,2-difluoroethyl)-1H-pyrazolo[3,4-b]pyrazin-6-yl]-octahydropyrrolo[3,2-b]pyrrol-1-yl]-6-(trifluoromethyl)pyridine]"
8,10 to 50,"FC(F)Cn1ncc2ncc(N3CC[C@H]4CN(c5cc(C(F)(F)F)ccn5)C[C@H]43)nc21 (racemic) [Compound 58, rac-2-[(3aR,6aR)-1-[1-(2,2-difluoroethyl)-1H-pyrazolo[3,4-b]pyrazin-6-yl]-octahydropyrrolo[3,4-b]pyrrol-5-yl]-4-(trifluoromethyl)pyridine]"
9,10 to 50,"FC(F)Cn1ncc2ncc(N3CC[C@H]4CN(c5cccc(C(F)(F)F)n5)C[C@H]43)nc21 (racemic) [Compound 59, rac-2-[(3aR,6aR)-1-[1-(2,2-difluoroethyl)-1H-pyrazolo[3,4-b]pyrazin-6-yl]-octahydropyrrolo[3,4-b]pyrrol-5-yl]-6-(trifluoromethyl)pyridine]"
10,10 to 50,"FC(F)Cn1ncc2ncc(N3C[C@@H]4CCN(c5cc(C(F)(F)F)ccn5)[C@@H]4C3)nc21 (racemic) [Compound 60, rac-2-[(3aR,6aR)-5-[1-(2,2-difluoroethyl)-1H-pyrazolo[3,4-b]pyrazin-6-yl]-octahydropyrrolo[2,3-c]pyrrol-1-yl]-4-(trifluoromethyl)pyridine]"
11,10 to 50,"FC(F)Cn1ncc2ncc(N3C[C@@H]4CCN(c5cccc(C(F)(F)F)n5)[C@@H]4C3)nc21 (racemic) [Compound 61, rac-2-[(3aR,6aR)-5-[1-(2,2-difluoroethyl)-1H-pyrazolo[3,4-b]pyrazin-6-yl]-octahydropyrrolo[2,3-c]pyrrol-1-yl]-6-(trifluoromethyl)pyridine]"
12,10 to 50,"O=C1[C@@H]2CN(c3cccc(C(F)(F)F)n3)C[C@@H]2CN1c1cnc2cnn(CC(F)F)c2n1 (racemic) [Compound 62, rac-(3aR,6aS)-2-[1-(2,2-difluoroethyl)-1H-pyrazolo[3,4-b]pyrazin-6-yl]-5-[6-(trifluoromethyl)pyridin-2-yl]-octahydropyrrolo[3,4-c]pyrrol-1-one]"
13,10 to 50,"FC(F)Cn1ncc2ncc(N3CC[C@@H]4CN(c5ccc(C(F)(F)F)cn5)C[C@H]4C3)nc21 (single isomer, unassigned) [Compound 68]"
14,< 10,"FC(F)Cn1ncc2ncc(N[C@H]3CC[C@@H]4CN(c5cccc(C(F)(F)F)n5)C[C@@H]4C3)nc21 (single isomer, unassigned) [Compound 70]"
15,10 to 50,"FC(F)Cn1ncc2ncc(N[C@@H]3CC[C@@H]4CN(c5cccc(C(F)(F)F)n5)C[C@@H]4C3)nc21 (single isomer, unassigned) [Compound 71]"
16,< 10,"FC(F)Cn1ncc2ncc(N[C@H]3CC[C@@H]4CN(c5cc(C(F)(F)F)ccn5)C[C@@H]4C3)nc21 (single isomer, unassigned) [Compound 72]"
17,10 to 50,"FC(F)Cn1ncc2ncc(N[C@@H]3CC[C@@H]4CN(c5cc(C(F)(F)F)ccn5)C[C@@H]4C3)nc21 (single isomer, unassigned) [Compound 73]"
18,10 to 50,"FC(F)Cn1ncc2ncc(N[C@H]3CC[C@@H]4CN(c5cccnc5C(F)(F)F)C[C@@H]4C3)nc21 (single isomer, unassigned) [Compound 74]"
19,> 100,"FC(F)Cn1ncc2ncc(N[C@@H]3CC[C@@H]4CN(c5cccnc5C(F)(F)F)C[C@@H]4C3)nc21 (single isomer, unassigned) [Compound 75]"
20,50 to 100,"FC(F)Cn1ncc2ncc(N3CCN4C[C@H](Oc5cccnc5C(F)(F)F)C[C@H]4C3)nc21 [Compound 26, 3-{[(7R,8aS)-2-[1-(2,2-difluoroethyl)-1H-pyrazolo[3,4-b]pyrazin-6-yl]-octahydropyrrolo[1,2-a]pyrazin-7-yl]oxy}-2-(trifluoromethyl)pyridine]"
21,50 to 100,"Cn1c(-c2ccccc2)c(C(=O)N2CCN3C[C@H](Oc4cccnc4C(F)(F)F)C[C@H]3C2)c2nccnc21 [Compound 27, 3-{[(7R,8aS)-2-{5-methyl-6-phenyl-5H-pyrrolo[2,3-b]pyrazine-7-carbonyl}-octahydropyrrolo[1,2-a]pyrazin-7-yl]oxy}-2-(trifluoromethyl)pyridine]"
22,10 to 50,"O=C(c1ccc2cc[nH]c2c1)N1CCN2C[C@H](Oc3cccnc3C(F)(F)F)C[C@H]2C1 [Compound 28, 6-[(7R,8aS)-7-{[2-(trifluoromethyl)pyridin-3-yl]oxy}-octahydropyrrolo[1,2-a]pyrazine-2-carbonyl]-1H-indole]"
23,< 10,"FC(F)Cn1ncc2ncc(N3CC4CC(Oc5cccc(C(F)(F)F)n5)CC4C3)nc21 (centres unmarked) [Compound 29, 2-({2-[1-(2,2-difluoroethyl)-1H-pyrazolo[3,4-b]pyrazin-6-yl]-octahydrocyclopenta[c]pyrrol-5-yl}oxy)-6-(trifluoromethyl)pyridine]"
24,< 10,"FC(F)Cn1ncc2ncc(N3CC4CC(Oc5cc(C(F)(F)F)ccn5)CC4C3)nc21 (centres unmarked) [Compound 30, 2-({2-[1-(2,2-difluoroethyl)-1H-pyrazolo[3,4-b]pyrazin-6-yl]-octahydrocyclopenta[c]pyrrol-5-yl}oxy)-4-(trifluoromethyl)pyridine]"
25,> 100,"FC(F)Cn1ncc2ncc(N3CC4CC(Oc5cccnc5C(F)(F)F)CC4C3)nc21 (centres unmarked) [Compound 31, 3-({2-[1-(2,2-difluoroethyl)-1H-pyrazolo[3,4-b]pyrazin-6-yl]-octahydrocyclopenta[c]pyrrol-5-yl}oxy)-2-(trifluoromethyl)pyridine]"
26,< 10,"FC(F)Cn1ncc2ncc(N[C@@H]3C[C@@H]4CN(c5cccc(C(F)(F)F)n5)C[C@@H]4C3)nc21 [Compound 32, (3aR,5S,6aS)—N-[1-(2,2-difluoroethyl)-1H-pyrazolo[3,4-b]pyrazin-6-yl]-2-[6-(trifluoromethyl)pyridin-2-yl]-octahydrocyclopenta[c]pyrrol-5-amine]"
27,< 10,"FC(F)Cn1ncc2ncc(N[C@@H]3C[C@@H]4CN(c5cc(C(F)(F)F)ccn5)C[C@@H]4C3)nc21 [Compound 33, (3aR,5S,6aS)—N-[1-(2,2-difluoroethyl)-1H-pyrazolo[3,4-b]pyrazin-6-yl]-2-[4-(trifluoromethyl)pyridin-2-yl]-octahydrocyclopenta[c]pyrrol-5-amine]"
28,10 to 50,"FC(F)Cn1ncc2ncc(N[C@H]3C[C@@H]4CN(c5cccc(C(F)(F)F)n5)C[C@@H]4C3)nc21 [Compound 34, (3aR,5R,6aS)—N-[1-(2,2-difluoroethyl)-1H-pyrazolo[3,4-b]pyrazin-6-yl]-2-[6-(trifluoromethyl)pyridin-2-yl]-octahydrocyclopenta[c]pyrrol-5-amine]"
29,< 10,"FC(F)Cn1ncc2ncc(N[C@H]3C[C@@H]4CN(c5cc(C(F)(F)F)ccn5)C[C@@H]4C3)nc21 [Compound 35, (3aR,5R,6aS)—N-[1-(2,2-difluoroethyl)-1H-pyrazolo[3,4-b]pyrazin-6-yl]-2-[4-(trifluoromethyl)pyridin-2-yl]-octahydrocyclopenta[c]pyrrol-5-amine]"
